Source: patent US6492531B1, “Method of treating cognitive disorders” (Warner-Lambert Company, priority 1992, dated 2002)

Tests used:
mice = test: mouse light/dark box habituation test; format: in vivo; settings: 0.25 mg/kg
Protocol: (§1) A test carried out using the mouse light/dark box and the rat T-maze reinforced alternation task.
On repeated exposure to the light/dark box mice habituate by moving more rapidly from the light to the dark side. The habituation occurs over a 4 to 6 day period, with a reduction in latency of movement from about 14 sec to 2 to 4 sec by the 4th day of the test.
The compounds was administered at a dose of 0.00001 mg/kg SC once daily.
The days (1-6) are along the X axis and the time in seconds is along the Y axis (latency white to black) and Day 6 scopolamine was 0.25.
∘ p <0.001 indicates improved habituation, comparison is with 1 day.
* p <0.05 to p <0.001 is improved performance, compared to control.
+ p <0.001 is scopolamine impairment.
Δ p <0.001 is inhibition of scopolamine impairment.

rat = rat T-maze reinforced alternation task; format: in vivo; settings: twice daily 0.25 mg/kg
Protocol: as §1
The X axis is the day and the Y axis is the percent correct responses.
The number of mice tested was six.
⬭ - - - ⬭ is the control vehicle.
⬬ - - - ⬬ is scopolamine at 0.25 mg/kg IP BID.

CN1[C@@H]2C[C@@H](OC(=O)[C@H](CO)c3ccccc3)C[C@H]1[C@@H]1O[C@@H]12 [scopolamine]
effect of scopolamine on habituation performance (mice): impairment of performance
effect of scopolamine on task performance (rat): deficit
